From patent publication US10131679B2, “Substituted dihydropyrrolopyrazole compound” (UBE INDUSTRIES, LTD., priority 2014, dated 2018)

The compounds below were run on IL-6 production in rat adjuvant arthritis model (assay: IL-6 production inhibition test in rat adjuvant arthritis model). Conditions: single dose, administration of 3 mg/kg, left ankle, read-out: rate of inhibition of IL-6 production.
Type: in vivo, LEW rats
Experimental: IL-6 Production Inhibition Test in Rat Adjuvant Arthritis Model
A single-dose drug efficacy test using rat adjuvant arthritis models was carried out by modifying the method of Magari. K et al. (J. Rheumatol. 30 (10), 2193 (2003)).
LEW rats (female, supplied by Charles River Laboratories Japan, Inc.) were used as laboratory animals. An adjuvant prepared from heat-killed bacteria of Mycobacterium butyricum (264010 manufactured by Difco Laboratories Ltd.) and liquid paraffin (manufactured by Wako Pure Chemical Industries, Ltd., Code No. 128-04375) was subcutaneously administered as a phlogogenic material to the right hind leg footpads of the rats under inhalation anesthesia with isoflurane (manufactured by Wako Pure Chemical Industries, Ltd., Code No. 099-06571) to prepare arthritis models. Approximately 2 weeks later, left paw edema was measured with a paw volume meter (model TK-101CMP manufactured by Unicorn Co., Ltd.), and grouping was performed such that the average volume of left paw edema was equal among groups. A test compound or only a solvent was administered, after a certain time, they were sacrificed by exsanguination from the abdomens under isoflurane anesthesia, and the left ankles were collected, chopped, and frozen by using liquid nitrogen. The collected left ankle portions were disrupted in CRYOPress (model CP-100WP manufactured by Microtec Co., Ltd.), then supplemented with a buffer solution, shaken overnight at 4° C., and then centrifuged to collected a supernatant. The preparation of the buffer solution was performed by mixing a Tris buffer solution (pH 7.4), sodium chloride (NaCl), phenyl methyl sulfonyl fluoride (PMSF), Triton X-100, EDTA-free complete tablets (manufactured by F. Hoffmann-La Roche, Ltd., REF. 11 873 580 001), and Otsuka distilled water (manufactured by Otsuka Pharmaceutical Co., Ltd., product No. 1323). IL-6 in the collected supernatant was measured by using a sandwich ELISA kit (manufactured by R&D Systems, Inc., Catalog No. S6050).
The IL-6 content of each sample was calculated from the calibration curve of Standard IL-6 included in the kit. When the amount of IL-6 produced in the solvent administration control group was defined as 100%, the rate of inhibition of IL-6 production (%) at each dose of the test compound was calculated.

Row | SMILES | inhibition in vivo at 3 mg/kg [%]
1 | COC[C@@H](NC(=O)N1Cc2c(NC(=O)C3([Si](C)(C)C)CCC3)n[nH]c2C1(C)C)c1ccccc1 [IV-123, (S)—N-(2-Methoxy-1-phenylethyl)-6,6-dimethyl-3-[1-(trimethylsilyl)cyclobutanecarboxamido]-4,6-dihydropyrrolo[3,4-c]pyrazole-5(1H)-carboxamide] | ≥ 50
2 | CCOC[C@@H](NC(=O)N1Cc2c(NC(=O)C3([Si](C)(C)C)CCC3)n[nH]c2C1(C)C)c1ccccc1 [IV-139, (S)—N-(2-Ethoxy-1-phenylethyl)-6,6-dimethyl-3-[1-(trimethylsilyl)cyclobutanecarboxamido]-4,6-dihydropyrrolo[3,4-c]pyrazole-5(1H)-carboxamide] | ≥ 50
3 | CC1(C)c2[nH]nc(NC(=O)C3([Si](C)(C)C)CCC3)c2CN1C(=O)N[C@H](CCO)c1ccccc1 [IV-227, (R)—N-(3-Hydroxy-1-phenylpropyl)-6,6-dimethyl-3-[1-(trimethylsilyl)cyclobutanecarboxamido]-4,6-dihydropyrrolo[3,4-c]pyrazole-5(1H)-carboxamide] | ≥ 50
4 | CC(C)(O)C[C@@H](NC(=O)N1Cc2c(NC(=O)C3([Si](C)(C)C)CCC3)n[nH]c2C1(C)C)c1ccccc1 [IV-299, (R)—N-(3-Hydroxy-3-methyl-1-phenylbutyl)-6,6-dimethyl-3-[1-(trimethylsilyl)cyclobutanecarboxamido]-4,6-dihydropyrrolo[3,4-c]pyrazole-5(1H)-carboxamide] | ≥ 50
5 | CC1(C)c2[nH]nc(NC(=O)C3([Si](C)(C)C)CCC3)c2CN1C(=O)C(CO)c1ccccc1 (stereo not drawn) [IV-632, N-[5-(3-Hydroxy-2-phenylpropanoyl)-6,6-dimethyl-1,4,5,6-tetrahydropyrrolo[3,4-c]pyrazol-3-yl]-1-(trimethylsilyl)cyclobutanecarboxamide] | ≥ 50

Same assay, conditions: single dose, administration of 10 mg/kg, left ankle, read-out: rate of inhibition of IL-6 production

Row | SMILES | inhibition in vivo at 10 mg/kg [%]
6 | CC1(C)c2[nH]nc(NC(=O)C(C)(C)[Si](C)(C)C)c2CN1C(=O)N[C@H](CO)c1ccccc1 [II-114, (S)—N-(2-Hydroxy-1-phenylethyl)-6,6-dimethyl-3-[2-methyl-2-(trimethylsilyl)propanamido]-4,6-dihydropyrrolo[3,4-c]pyrazole-5(1H)-carboxamide] | ≥ 50
7 | CC1(C)c2[nH]nc(NC(=O)C3([Si](C)(C)C)CCC3)c2CN1C(=O)O[C@H](CO)c1ccccc1 [IV-2, (S)-2-Hydroxy-1-phenylethyl 6,6-dimethyl-3-[1-(trimethylsilyl)cyclobutanecarboxamido]-4,6-dihydropyrrolo[3,4-c]pyrazole-5(1H)-carboxylate] | ≥ 50
8 | CN(C(=O)N1Cc2c(NC(=O)C3([Si](C)(C)C)CCC3)n[nH]c2C1(C)C)[C@H](CO)c1ccccc1 [IV-119, (S)—N-(2-Hydroxy-1-phenylethyl)-N,6,6-trimethyl-3-[1-(trimethylsilyl)cyclobutanecarboxamido]-4,6-dihydropyrrolo[3,4-c]pyrazole-5(1H)-carboxamide] | ≥ 50
9 | CC(C)(O)[C@@H](NC(=O)N1Cc2c(NC(=O)C3([Si](C)(C)C)CCC3)n[nH]c2C1(C)C)c1ccccc1 [IV-171, (S)—N-(2-Hydroxy-2-methyl-1-phenylpropyl)-6,6-dimethyl-3-[1-(trimethylsilyl)cyclobutanecarboxamido]-4,6-dihydropyrrolo[3,4-c]pyrazole-5(1H)-carboxamide] | ≥ 50
